Experimental findings from patent publication US20180117176A1, “POROUS SILICON MICROPARTICLE-BASED CANCER VACCINES AND METHODS FOR POTENTIATING ANTI-TUMOR IMMUNITY” (The Methodist Hospital, priority 2015, published 2018) are described below.

Where a SMILES comes first, the peptide text is derived from it. The star is where a group is joined. Cbz = O=C(OCc1ccccc1)*

Holding throughout (assay type): cell-based, mouse
For one test, the system named is Ifn-α4 and Ifn-β genes. Put plainly: QPCR analysis of Ifn-α4 and Ifn-β gene expression in BMDCs. The settings on record: BMDCs pre-treated with chemical inhibitor. On the procedure:
FIG. 3A, FIG. 3B, FIG. 3C, and FIG. 3D show PSM-induced IFN-I signaling in DCs. […] Cell culture medium served as the negative control. […] FIG. 3C is a QPCR analysis of mRNA levels of the Ifn-α4 and Ifn-β genes in BMDCs 5 hrs after co-incubation with PSM, free antigen, or PSM/OVA antigen. […] Data are presented as mean±S.D.; *, P <0.05, **, P <0.01 (see also FIG. 9A and FIG. 9B);
FIG. 4A, FIG. 4B, FIG. 4C, FIG. 4D, FIG. 4E, FIG. 4F, FIG. 4G, FIG. 4H, FIG. 4I, and FIG. 4J show TRIF and MAVS mediated PSM induced interferon type I (IFN-I) activation. FIG. 4A, FIG. 4B, FIG. 4C, and FIG. 4D illustrate PSM-induced changes of Ifn-α4 and Ifn-β gene expression in BMDCs infected with lentiviruses carrying shRNAs targeting the indicated genes. FIG. 4E, FIG. 4F, FIG. 4G, and FIG. 4H illustrate PSM-induced changes of Ifn-α4 and Ifn-β gene expression in BMDCs isolated from wild-type or gene knockout mice. […] FIG. 4J is a schematic view of PSM-induced signaling pathway that mediates IFN-I activation. Data are presented as mean±S.D.; *, P <0.05, **, P <0.01; (see also FIG. 10A, FIG. 10B, FIG. 10C, FIG. 10D, FIG. 10E, and FIG. 10F);
FIG. 10A, FIG. 10B, FIG. 10C, FIG. 10D, FIG. 10E, and FIG. 10F show PSM induced activation of IFN-I signaling in DCs. […]
Real-Time PCR. […] The expression of individual genes was calculated by a ΔΔCT method, and normalized to the expression of β-actin. […]

For test [1], the system named is OVA-specific B3Z CD8 T cells. Nature of the test: In vitro antigen presentation assay, IL-2 production by B3Z cells. The settings on record: DCs treated with inhibitor before co-incubation with soluble OVA. On the procedure:
In Vitro Antigen Presentation Assay. The in vitro antigen presentation assay was performed as previously described (Mukai et al., 2011). Briefly, DC2.4 cells or BMDCs isolated from C57BL/6 mice or TAP^−/− mice were seeded in a 96-well flat-bottom culture plates at a density of 2×10^5 cells/well, and cultured for 12 hrs at 37° C. Each well was washed once with PBS, and then the cells were pulsed with soluble OVA, PSM/OVA, OVA-derived MHC class I epitope peptide [OVA257-264; SIINFEKL (SEQ ID NO:1)], or MHC class II epitope peptide [OVA323-339; ISQAVHAAHAEINEAGR (SEQ ID NO:2); Peptide 2.0] for indicated time points, and immediately fixed with 1% paraformaldehyde. The cells were then co-cultured with 2×10^5 B3Z cells or 2×10^5 DOBW cells for 18 hrs at 37° C. The response of stimulated B3Z or DOBW cells was assessed by determining the amount of IL-2 released into the culture medium using a murine IL-2 ELISA KIT (Ebioscience, San Diego, Calif., USA). […]
T-cell response to antigen cross-presentation of PSM-loaded OVA (PSM/OVA) was next assessed in DCs using an in vitro antigen presentation assay. […] It was subsequently determined whether PSM packaging could induce sustained antigen presentation. […]

A further test relates to DCs (DC2.4 cells, BMDCs). Put plainly: DC uptake of PSM/FITC-OVA in cell culture. The text has this:
FIG. 1A, FIG. 1B, FIG. 1C, FIG. 1D, FIG. 1E, FIG. 1F, and FIG. 1G show PSM-loaded antigen was efficiently internalized by dendritic cells (DCs) through phagocytosis and macropinocytosis. […] Upper panel, DC2.4 cells; lower panel, bone-marrow-derived dendritic cells (BMDCs). Scale bar, 25 μm. FIG. 1B is a representative transmission electron microscopy (TEM) image showing the vesicular structure around a PSM/OVA particle inside a DC. Upper panel magnification=5,000×; lower panel magnification=50,000×. Upper panel scale bar=4 μm; lower panel bar=0.5 μm. […] The DCs were extensively washed after priming with 5 μg/mL soluble peptide or PSM/peptides, and either immediately co-incubated with B3Z cells (0 hrs), or cultured for 18 to 30 hrs before T-cell co-incubation; Data are presented as mean±S.D.; *, P <0.05, **, P <0.01; (See also FIG. 7A-FIG. 7E);
Confocal Laser Scanning Microscopy. DC2.4 cells or BMDCs were seeded on eight-well chamber slides at a density of 1×10^5 cells/well and cultured for 24 hrs at 37° C. Each well was washed twice with PBS, and the cells were pulsed with FITC-OVA or PSM/FITC-OVA for 20 min. Cells were washed twice with PBS and incubated for an additional 30 min, 1, 3, or 6 hours in culture medium at 37° C. […] The samples were embedded with Prolong® Gold anti-fade reagent with DAPI (Invitrogen) and analyzed by confocal laser scanning microscopy (Olympus IX81). […]

The subject of a further test is DCs. Put plainly: Intracellular antigen trafficking by confocal microscopy. On the procedure: FIG. 2A, FIG. 2B, and FIG. 2C show antigen presentation of PSM-loaded OVA. FIG. 2A illustrates subcellular transport of antigens. DCs were incubated with PSM/FITC-OVA for 0.5 hrs, and then washed extensively to remove unbound particles. The cells were cultured for an additional 0.5 hr, 1 hr, 3 hrs, or 6 hrs before fixation, followed by immunostaining with antibodies recognizing specific organelles (EEA1 for early endosome; Rab7 for late endosome; TR for recycling endosome; and KDEL for the ER). Scale bar=25 μm. […] Peptide I (100 ng/mL) served as the positive control. […] BMDCs were incubated with OVA or PSM/OVA for 16 hrs, followed by harvest and labeling with the anti-CD11c antibody identifying DCs and the 25D1.16 antibody recognizing OVA257-264/H-2K^b complex on DC surface. Percentages of 25D1.16-staining positive populations in DCs are shown in red numbers. Data are presented as mean±S.D; *, P <0.05, **, P <0.01 (see also FIG. 8A, FIG. 8B and FIG. 8C);
Confocal Laser Scanning Microscopy. DC2.4 cells or BMDCs were seeded on eight-well chamber slides at a density of 1×10^5 cells/well and cultured for 24 hrs at 37° C. Each well was washed twice with PBS, and the cells were pulsed with FITC-OVA or PSM/FITC-OVA for 20 min. […] The samples were embedded with Prolong® Gold anti-fade reagent with DAPI (Invitrogen) and analyzed by confocal laser scanning microscopy (Olympus IX81).

Consider `O=C(NCCCNc1nc(Nc2cccc(NC(=O)N3CCCC3)c2)ncc1I)c1cccs1` [BX795], for which the “Effect of inhibitor on IFN-I induction by PSM” value in the test with Ifn-α4 and Ifn-β genes is reported as “markedly inhibited IFN-I induction”.
Turning to `CC(C)C[C@@H](C=O)NC(=O)[C@H](CC(C)C)NC(=O)[C@H](CC(C)C)NC(=O)OCc1ccccc1` [MG-132] (Cbz-Leu-Leu-Leu-aldehyde), the “Effect on class I antigen presentation of soluble OVA” value in test [1] is reported as “completely blocked”.
For the molecule `N=C(N)NC(=O)c1nc(Cl)c(N)nc1N` [amiloride], the “Effect of inhibitor pre-treatment on particle internalization” value in the test with DCs (DC2.4 cells, BMDCs) is “significantly decreased particle internalization”.
For the molecule “free FITC-OVA: free FITC-conjugated ovalbumin”, in the test on DCs, the “Signal inside DCs at 6 hrs” value is on record as “very weak signal by 6 hour”.
Take `C=C1[C@@H](C)[C@H]2[C@H](Cc3ccccc3)NC(=O)[C@]23[C@H](OC(C)=O)/C=C/[C@@](C)(O)C(=O)[C@@H](C)C/C=C/[C@H]3[C@@H]1O` [cytochalasin D]: the “Effect of inhibitor pre-treatment on particle internalization” value with DCs (DC2.4 cells, BMDCs) is “significantly decreased particle internalization”. The “Effect of inhibitor on IFN-I induction by PSM” value with Ifn-α4 and Ifn-β genes is on record as “suppressed IFN-I induction by PSM”.
